Laboratory results from article PMC8472513, “(−)-6-epi-Artemisinin, a Natural Stereoisomer of (+)-Artemisinin in the Opposite Enantiomeric Series, from the Endemic Madagascar Plant Saldinia proboscidea, an Atypical Source” (Molecules, 2021).
Where two headings read alike, the source gives them in different places.

Key:
[1] = test system: SARS-CoV-2; assay: microbe, parasite or virus in culture; type: cell-based; conditions: Vero E6 cells; for EC50: MOI 0.01, 24 h post infection, read-out: EC50, SARS-CoV-2 inhibitory assay
[2] = test system: Vero E6 cells; conditions: read-out: CC50, cytotoxicity against Vero E6 cells; CCK8
[3] = test system: W2 apoptotic competent and D3 apoptotic deficient mouse epithelial cell lines; assay: apoptosis induction assay (MTT, W2 vs D3 cells); type: cell-based; conditions: 48 h
From the text: However, the antiproliferative activity of different artemisinin isomers has never been studied in the past. […] To address this subject, we performed an apoptosis induction assay with compound 2 in order to evaluate the effect of the change in configurations on this activity. To develop a cell-based assay specific for the identification of apoptosis-inducing compounds that are potential antiproliferative agents, we used two genetically engineered mouse epithitial cell lines: W2 apoptotic competent and D3 apoptotic deficient. Compounds that have the capacity to kill W2 and not D3 cells are consistent with proapoptotic, potentially antiproliferative activity. Compounds that meet these criteria activate apoptosis upstream in a pathway that requires Bax and Bak. […]
Apoptosis induction in the presence of compound 2 was carried out as follows. […] Cell viability was determined using a modification of the MTT assay, where the reduction of yellow tertazolium salt (MTT-3-(4,5-Dimethylthiazol-2-yl)-2,5) to purple formazan indicates mitochondrial activity, and thus cell viability. […] After 30 min incubation at 37 °C with shaking, absorbance was read at 570 nm on a Spectra MAX 250 (Molecular Devices) plate reader. Differential growth from time 0 to 48 h was calculated. […]

[4] = test system: haem polymerization; assay: haem polymerization inhibitory activity (HPIA) assay; type: biochemical; conditions: haematin, pH 2.6, 37 °C, 24 h; read-out: IC50, inhibition of haem polymerization formation
Description: Antimalarial activity was tested to (−)-6-epi-artemisinin (2) based on inhibition of haem polymerization. Haem is a by-product of haemoglobin digestion […]. It is potentially toxic to biological membranes and parasite enzymes, and it is thus sequestered in the form of an insoluble crystalline polymer, haemozoin or malaria pigment. Identifying molecules that interfere with haem polymerization is the basic principle of the assay. Haem can be polymerized in vitro, in the absence of proteins, from a solution of haematin at 70 °C or 37 °C at acidic pH. In vitro quantification of haem polymerization allows the identification of molecules with haem polymerization inhibitory activity (HPIA) and the assessment of their HPIA, relative to that of standard antimalarials like chloroquine.
100 microliters of a 0.5 mM solution of haematin, previously dissolved in 0.1 M NaOH, was distributed in 96-well U-bottomed microplates. […] The DMSO-soluble fraction (fraction II) was collected, and the pellet, consisting of a pure precipitate of haematin, was dissolved in 0.1 M NaOH (fraction III) for spectroscopic quantification. […] The amount of haematin was determined by measuring the absorbance at 405 nm using a microtiter plate reader. […]
Statistical analysis. […] Data were analyzed by Excel Microsoft. […]

[5] = in vitro; conditions: African green monkey, CC50, cytotoxicity against Vero E6 cells, CCK8
[6] = test system: MCF breast cancer cells; conditions: read-out: IC50, antiproliferative activity, cited from earlier work
[7] = test system: SARS-CoV-2; parameters: method as in PMID 32786284; conditions: read-out: EC50, inhibitory effect on SARS-CoV-2; cited from earlier work

## CC1CCC2C(C)C(=O)OC3OC4(C)CCC1C32OO4 (stereo not drawn) [compound 3, 9 epimer of 2]
[1]
  inhibition of growth of SARS-CoV-2 (in words): inhibited the growth of SARS-CoV-2
  EC50: 54 ± 0.27 µM
[2]
  CC50: > 200 µM

## CC1CCC2C(C)C(=O)OC3OC4(C)CCC1C32OO4 (single isomer, unassigned; (-)) [compound 2, (−)-6-epi-artemisinin]
[3]; Mus musculus, Epithelial cell, read-out: IC50, induction of apoptosis, W2/D3 cells, 48 h, MTT
  IC50: 10 µM
[3]; read-out: IC50, induction of apoptosis, W2/D3 cells, MTT
  IC50: 11 ± 0.71 µM
[1]; Severe acute respiratory syndrome coronavirus 2, Vero C1008, 24 h
  EC50: 49 ± 0.32 µM
[1]
  inhibition of growth of SARS-CoV-2 (in words): inhibited the growth of SARS-CoV-2
[4]
  IC50: 0.0035 ± 2e-06 µM
[2]
  CC50: > 250 µM
[5]
  CC50: > 200 µM

## CCN(CC)CCCC(C)Nc1ccnc2cc(Cl)ccc12 (stereo not drawn) [chloroquine, reference compound]
[4]
  IC50: 0.018 ± 1e-06 µM

## C[C@H]1[C@@H](O)O[C@@H]2O[C@@]3(C)CC[C@H]4[C@H](C)CC[C@@H]1[C@@]24OO3 [dihydroartemisinin]
[6]; these same cells (MCF)
  IC50: 5.27 ± 0.01 µM

## C[C@@H]1CC[C@H]2[C@@H](C)C(=O)O[C@@H]3O[C@@]4(C)CC[C@@H]1[C@]32OO4 [compound 1, (+)-artemisinin]
[1]
  inhibition of growth of SARS-CoV-2 (in words): inhibited the growth of SARS-CoV-2
[7]
  EC50: 64 µM
[6]; MCF breast cancer cells
  IC50: 9.13 ± 0.07 µM
